Type in all cases: cell-based, rat (male Wistar)
Experiment [1] has as its system free adipocytes from abdominal subcutaneous adipose tissue. The experiment in a line: Test Example 3: lipolysis-stimulating activity (free glycerol) in free adipocytes with norepinephrine; Huang Hua Cai extract and aminophylline. Conditions: Rattus norvegicus, Adipocyte, aminophylline singly, 90 nM norepinephrine, control = 100%.
Experimental: (§1) Specifically, free adipocytes were recovered from the abdominal subcutaneous adipose tissue of each of one to three male Wistar rats (each having a body weight of 170 to 230 g) by use of a collagenase solution.
(§2) The free adipocytes were incubated at 37° C. for 2 hours in a Hanks buffer solution containing bovine serum albumin and 90 nM norepinephrine (reaction mixture) to which each test substance had been added. The resultant free glycerol was assayed through an enzymatic method (Free Glycerol Reagent, product of Sigma-Aldrich).
(§3) As a control, adipocytes were incubated in the same buffer containing only norepinephrine but no test substance.
(§4) Lipolysis-stimulating activity was calculated by the following equation, with 100% being a control value. Lipolysis-stimulating activity(%)=100×(free glycerol in each group)/(free glycerol in control group)
The procedure of Test Example 1 was repeated, except that caffeine was changed to aminophylline. The following substances were tested: and two different mixtures of Huang Hua Cai extract and aminophylline (hereinafter referred to as “Huang Hua Cai-aminophylline mixture”), i.e., Huang Hua Cai-aminophylline mixture 1 (Huang Hua Cai extract+1 μg/mL aminophylline), and a Huang Hua Cai-aminophylline mixture 2 (Huang Hua Cai extract+3 μg/mL aminophylline).
Aminophylline employed in the test was a commercial product (Sigma-Aldrich). […]
For experiment [2] the test system is unchanged. Briefly: Test Example 1: lipolysis-stimulating activity (free glycerol) in free adipocytes with norepinephrine; Huang Hua Cai extract and caffeine. The note with it: Rattus norvegicus, Adipocyte, caffeine singly, 90 nM norepinephrine, 37° C., 2 hours, control = 100%.
Experimental: The Rodbell's method (Rodbell, M., J. Biol. Chem., 239, 375 (1964)) was employed. Specifically, free adipocytes were recovered from the abdominal subcutaneous adipose tissue of each of one to three male Wistar rats (each having a body weight of 170 to 230 g) by use of a collagenase solution.
The following substances were tested: the Huang Hua Cai extract (singly), caffeine (singly), and two different mixtures of Huang Hua Cai extract and caffeine (hereinafter referred to as “Huang Hua Cai-caffeine mixture”), i.e., Huang Hua Cai-caffeine mixture 1 (Huang Hua Cai extract+10 μg/mL caffeine), and Huang Hua Cai-caffeine mixture 2 (Huang Hua Cai extract+30 μg/mL caffeine).
as §2
To the reaction mixture, added the Huang Hua Cai extract at the final concentration of 0, 3, 10, 30 and 100 μg/mL, respectively, and caffeine at the final concentration of 0, 10 and 30 μg/mL, respectively. […]
Lipolysis-stimulating activity was calculated by the following equation, with 100% being a control value. […]
Experiment [3] has the same test system. Briefly: Test Example 2: lipolysis-stimulating activity (free glycerol) in free adipocytes with norepinephrine; Huang Hua Cai extract and theophylline. The note with it: Rattus norvegicus, Adipocyte, theophylline singly, 90 nM norepinephrine, control = 100%.
Experimental: as §1, §2, §3, §4
The following substances were tested: the Huang Hua Cai extract (singly), theophylline (singly), and two different mixtures of Huang Hua Cai extract and theophylline (hereinafter referred to as “Huang Hua Cai-theophylline mixture”), i.e., Huang Hua Cai-theophylline mixture 1 (Huang Hua Cai extract+1 μg/mL theophylline), and a Huang Hua Cai-theophylline mixture 2 (Huang Hua Cai extract+3 μg/mL theophylline). […]

Each structure is given as a SMILES string.

Regarding `Cn1c(=O)c2[nH]cnc2n(C)c1=O` [Aminophylline, aminophylline], the activity at 1 µg/mL in experiment [1] (1 μg/mL) worked out at 140%. Also, the activity at 3 µg/mL in experiment [1] (3 μg/mL) was 197%.

As for `Cn1c(=O)c2c(ncn2C)n(C)c1=O` [Caffeine, caffeine], the activity at 10 µg/mL in experiment [2] (10 μg/mL) turned out to be 157%. Moreover, in experiment [2] (30 μg/mL), the activity at 30 µg/mL stood at 207%.

As to `Cn1c(=O)c2[nH]cnc2n(C)c1=O` [Theophylline, theophylline], the activity at 1 µg/mL in experiment [3] (1 μg/mL) stood at 142%. Moreover, the activity at 3 µg/mL in experiment [3] (3 μg/mL) is 188%.
